Converted amounts (≈) assume the structure as drawn.

The experiment relates to Mycobacterium tuberculosis. Kind of experiment: Antimycobacterial activity against Mycobacterium tuberculosis H37Rv ATCC 27294 after 4 days by microplate Alamar blue assay. The format is functional. Conditions: H37Rv ATCC 27294, 96 h.
In turn, `CC(C)(C)OC(=O)NCCOC(=O)/C=C/C(=O)c1ccc(Br)cc1` yielded an MIC of more than 4 mg/L.
With `COc1ccccc1C(=O)/C=C/C(=O)OC(C)C`, the MIC was found to be 1.91 mg/L (≈ 7.69 µM).
For `CCN(C)C(=O)/C=C/C(=O)c1ccc([N+](=O)[O-])cc1` the value was 1.7 mg/L (≈ 6.48 µM); for `O=C(O)/C=C/C(=O)c1ccc2c(c1)OCO2`, more than 4 mg/L.
For `O=C(O)/C=C/C(=O)c1ccccc1` the value was more than 4 mg/L.
For `O=C(O)/C=C/C(=O)c1ccc(OCc2ccccc2)cc1` the value was more than 4 mg/L; for `COc1ccc(C(=O)/C=C/C(=O)OCCNC(=O)OC(C)(C)C)cc1`, more than 4 mg/L; for `CCOc1ccc(C(=O)/C=C/C(=O)OC)cc1`, 0.41 mg/L (≈ 1.75 µM).
Turning to `CC(=O)/C=C/C(=O)OC(C)C`, inhibition of growth (MIC) required 2.5 mg/L (≈ 16 µM).
For `CC(C)OC(=O)/C=C/C(=O)c1ccccc1` the value was 0.78 mg/L (≈ 3.57 µM); for `COc1ccc(C(=O)/C=C/C(=O)N(C)C)cc1`, 0.38 mg/L (≈ 1.63 µM); for `O=C(O)/C=C/C(=O)c1cccc2ccccc12`, more than 4 mg/L.
For `COC(=O)/C=C/C(=O)c1ccccc1OC` the value was 0.99 mg/L (≈ 4.5 µM); for `COc1ccc(C(=O)/C=C/C(=O)OC(C)C)cc1OC`, 1.94 mg/L (≈ 6.97 µM).
For `CCN(C)C(=O)/C=C/C(=O)c1cccc(Cl)c1` the value was 0.97 mg/L (≈ 3.85 µM); for `COC(=O)/C=C/C(C)=O`, 0.86 mg/L (≈ 6.71 µM); for `CCCN(CCC)C(=O)/C=C/C(=O)c1ccc(OC)cc1`, 1.89 mg/L (≈ 6.53 µM).
The molecule `COC(=O)/C=C/C(=O)c1ccc(C)cc1` yielded an MIC of 0.37 mg/L (≈ 1.81 µM).
For `CCN(C)C(=O)/C=C/C(=O)c1ccc(Cl)c(Cl)c1` the value was 0.24 mg/L (≈ 0.839 µM); for `CN(C)C(=O)/C=C/C(=O)c1cccc(C(F)(F)F)c1`, 1.95 mg/L (≈ 7.19 µM).
`COc1cccc(C(=O)/C=C/C(=O)OCCNC(=O)OC(C)(C)C)c1` showed an MIC of more than 4 mg/L.
For `COC(=O)/C=C/C(=O)c1ccc(OCc2ccccc2)cc1` the value was 0.67 mg/L (≈ 2.26 µM); for `COC(=O)/C=C/C(=O)c1ccc2c(c1)CCO2`, 0.84 mg/L (≈ 3.62 µM).
For `CC(=O)/C=C/C(=O)OCCNC(=O)OC(C)(C)C` the value was more than 4 mg/L; for `CC(C)(C)OC(=O)NCCOC(=O)/C=C/C(=O)c1cccc2ccccc12`, more than 4 mg/L; for `O=C(O)/C=C/C(=O)C1CC1`, more than 4 mg/L.
For `CCOC(=O)/C=C/C(=O)c1ccc(-c2ccccc2)cc1` the value was 0.23 mg/L (≈ 0.82 µM).
`CC(C)OC(=O)/C=C/C(=O)c1ccc(-c2ccccc2)cc1` displayed an MIC of 0.24 mg/L (≈ 0.815 µM).
For `COc1ccccc1C(=O)/C=C/C(=O)O` the value was more than 4 mg/L; for `COC(=O)/C=C/C(=O)c1ccccc1`, 0.86 mg/L (≈ 4.52 µM).
For `COC(=O)/C=C/C(=O)c1ccco1` the value was 0.52 mg/L (≈ 2.89 µM); for `CCN(C)C(=O)/C=C/C(=O)c1cccc(C(F)(F)F)c1`, more than 2 mg/L; for `CC(C)OC(=O)/C=C/C(=O)C1CCCCC1`, more than 4 mg/L.
For `CN(C)C(=O)/C=C/C(=O)c1ccccc1F` the value was 0.95 mg/L (≈ 4.29 µM); for `COC(=O)/C=C/C(=O)c1cccc2ccccc12`, 0.45 mg/L (≈ 1.87 µM); for `CC(C)(C)OC(=O)NCCOC(=O)/C=C/C(=O)C1CC1`, 1.45 mg/L (≈ 5.12 µM).
As to `CCN(C)C(=O)/C=C/C(=O)c1ccc(Cl)cc1Cl`, the MIC is more than 2 mg/L.
For `CC(C)(C)OC(=O)NCCOC(=O)/C=C/C(=O)C1CCCCC1` the value was more than 4 mg/L; for `CCCN(CCC)C(=O)/C=C/C(=O)c1ccc(OCC)cc1`, 1.91 mg/L (≈ 6.3 µM); for `CCOC(=O)/C=C/C(=O)c1ccccc1`, 0.82 mg/L (≈ 4.02 µM).
For `CCN(C)C(=O)/C=C/C(=O)c1cccc(F)c1` the value was 0.48 mg/L (≈ 2.04 µM).
For `CN(C)C(=O)/C=C/C(=O)c1cccc([N+](=O)[O-])c1` the value was more than 2 mg/L; for `CN(C)C(=O)/C=C/C(=O)c1cccc(Br)c1`, 0.96 mg/L (≈ 3.4 µM); for `COC(=O)/C=C/C(=O)c1cc(OC)ccc1OC`, 0.88 mg/L (≈ 3.52 µM).
`COC(=O)/C=C/C(=O)c1ccc2c(c1)OCO2` registered an MIC of 0.38 mg/L (≈ 1.62 µM).
For `CCOC(=O)/C=C/C(=O)C1CC1` the value was more than 4 mg/L.
For `CCCN(CCC)C(=O)/C=C/C(=O)c1ccc(Cl)cc1Cl` the value was more than 2 mg/L.

The record behind these values is ChEMBL document CHEMBL4330134, “Design, synthesis, and bioevaluation of a novel class of (E)-4-oxo-crotonamide derivatives as potent antituberculosis agents” (Bioorg Med Chem Lett, 2019).
